Earlier results on one molecule are cited in patent US20180263953A1, “Sustained Release Cannabinoid Formulations” (CannTab Therapeutics, Limited, priority 2016, published 2018).

For data set [1] the following is noted: after administration.
For data set [2] the following is noted: low solubility and unknown permeability; NICHD/FDA Oral Formulations Platform Report 1.

In the case of `CCCCCc1cc(O)c2c(c1)OC(C)(C)[C@@H]1CCC(C)=C[C@@H]21` [Dronabinol, (−)-trans-Δ^9-tetrahydrocannabinol], the “duration of appetite stimulant effect” value in data set [1] is not below 24 h. Besides, the BCS class result in data set [2] is “class 2 or class 4”.
